In one data set the test system is rats. As to the kind of experiment: Diuretic effect in rats. Conditions: Rattus norvegicus, po, 5 h, urine volume up to 5 hours, % of control; for response vs control in vivo at 2.5 mg/kg: dosage 2.5 mg/kg; for response vs control in vivo at 5 mg/kg: dosage 5 mg/kg; for response vs control in vivo at 10 mg/kg: dosage 10 mg/kg; for response vs control in vivo at 50 mg/kg: dosage 50 mg/kg; for response vs control in vivo at 20 mg/kg: dosage 20 mg/kg. The format is in vivo, Wister strain male rats. As to the method: Wister strain male rats weighing about 200 g were starved overnight and each compound of this invention suspended in 25 ml/kg of physiological saline were administered orally to the 5 animals in each group, and the diuretic effect up to 5 hours after the administration was measured. The diuretic effect is expressed as the average urine volume (%) of the treated group divided by that of the control group.

Data set [1] in a line: Properties of respective derivatives (solubility). Type of data set: physicochemical.
For data set [2], the system named is Carrageenin-Induced Foot Edema. Briefly: Inhibition for carrageenin-induced foot edema in rats. The format is in vivo, Wister strain male rats. The following applies: Rattus norvegicus, po, 1 hour before carrageenin, paw volume 3 hours after, probit method, read-out: ED30 (dosage for 30% inhibition of edema). As to the method: 10 Wister strain male rats weighing about 120 g were used in each group. Each compound of this invention was suspended in a 5% aqueous arabic gum solution and administered orally to the animals. One hour after the administration, 0.1 ml of a 1% solution of carrageenin in physiological saline as a phlogistic agent was subcutaneously injected into the right hind paw of the rats which had been shaven previously. The volume of the right hind paw was measured before the administration of the phlogistic agent and 3 hours after the administration. The intensity of edema expressed as percent increase in the foot volume was calculated from the […] (1) and the percent inhibition of edema was calculated from the equation (2). [formula]
The effective dosage of each compound for inhibiting edema was expressed as ED30 (mg/kg) by calculating the dosage for 30% inhibition from the percent inhibition of edema according to the probit method.
(In general: The carrageenan paw model is a standard test of acute inflammation.)

The nature of data set [3]: Acute oral toxicity in mice. Conditions: mouse, in vivo, mortality 7 days after administration. The protocol:
10 ddY Strain male mice weighing about 20 g were used in each group. Each compound of this invention was suspended in a 5% aqueous gum arabic solution and administered orally. The mortality rate (%) was determined from the number of dead animals 7 days after the administration, and the dosage corresponding to 50% mortality was calculated and expressed as LD50 (mg/kg).

By LD50 is commonly meant the dose expected to kill half of the subjects tested. In the data set on rats, `COC(=O)N1CCC(=NO)c2cc(Cl)ccc21` [Compound X, 6-Chloro-4-oximino-1-methoxycarbonyl-1,2,3,4-tetrahydroquinoline] came in with a response vs control in vivo at 2.5 mg/kg of 188%, a response vs control in vivo at 5 mg/kg of 306% and a response vs control in vivo at 10 mg/kg of 371%. Moreover, in data set [1], the “Solubility in ethanol and dichloromethane” value is reported as “soluble”; the “Solubility in water and hexane” value was “Sparingly soluble”. The ED30 in data set [2] amounted to 14 mg/kg. Moreover, the LD50 at 168 h in data set [3] is 4470 mg/kg.

Take `O=C(C=Cc1ccccc1)N1CCC(=NO)c2cc(Cl)ccc21` [Compound VIII, 6-Chloro-4-oximino-1-cinnamoyl-1,2,3,4-tetrahydroquinoline]: in the data set with rats, the response vs control in vivo at 50 mg/kg was found to be 228%. For the same molecule, in data set [1], the “Solubility in methanol, acetone and chloroform” value (“Solubility in methanol” for short) is on record as “easily soluble”; the “Solubility in water and hexane” value was “Sparingly soluble”. The ED30 in data set [2] was 44 mg/kg. Moreover, the median lethal dose (LD50) at 168 h in data set [3] was greater than 5000 mg/kg.

Turning to `CCC(=O)N1CCC(=NO)c2cc(Cl)ccc21` [Compound II, 6-Chloro-4-oximino-1-propionyl-1,2,3,4-tetrahydroquinoline], in the data set on rats, the response vs control in vivo at 2.5 mg/kg is 253%, the response vs control in vivo at 5 mg/kg amounted to 304% and the response vs control in vivo at 10 mg/kg worked out at 410%. For the same molecule, in data set [1], the “Solubility in methanol” value is “easily soluble”; the “Solubility in water and hexane” value is reported as “Sparingly soluble”. Besides, the ED30 in data set [2] was 8.8 mg/kg. In data set [3], this molecule yielded a median lethal dose (LD50) at 168 h of 3490 mg/kg.

With `CNC(=O)N1CCC(=NO)c2cc(Cl)ccc21` [XIX, 6-Chloro-4-oximino-1-methylcarbamoyl-1,2,3,4-tetrahydroquinoline], the response vs control in vivo at 50 mg/kg with rats is 180%. Also, in data set [1], the “Solubility in ethanol and dichloromethane” value is given as “soluble”; the “Solubility in water and hexane” value is given as “Sparingly soluble”. The ED30 in data set [2] stood at 62 mg/kg. For the same molecule, the 50% lethal dose (LD50) at 168 h in data set [3] was greater than 5000 mg/kg.

On to `CC(=O)N1CCC(=NO)c2cc(Cl)ccc21` [Compound I, 6-Chloro-4-oximino-1-acetyl-1,2,3,4-tetrahydroquinoline], for which, in the data set on rats, the response vs control in vivo at 5 mg/kg amounted to 131%, the response vs control in vivo at 10 mg/kg is 186% and the response vs control in vivo at 20 mg/kg stood at 260%. In data set [1], the “Solubility in methanol” value is “easily soluble”; the “Solubility in water and hexane” value is on record as “Sparingly soluble”. The ED30 in data set [2] came to 39 mg/kg. Also, the median lethal dose (LD50) at 168 h in data set [3] is greater than 5000 mg/kg.

In the data set with rats, `CCCC(=O)N1CCC(=NO)c2cc(Cl)ccc21` [Compound III, 6-Chloro-4-oximino-1-butyryl-1,2,3,4-tetrahydroquinoline] returned a response vs control in vivo at 5 mg/kg of 122%, a response vs control in vivo at 10 mg/kg of 172% and a response vs control in vivo at 20 mg/kg of 240%. In addition, in data set [1], the “Solubility in methanol” value is given as “easily soluble”; the “Solubility in water and hexane” value is given as “Sparingly soluble”. Also, in data set [2], the ED30 came out at 33 mg/kg. Besides, in data set [3], the 50% lethal dose (LD50) at 168 h is greater than 5000 mg/kg.

`CNC(=O)N1CCC(=NO)c2cc(Br)ccc21` [XX, 6-Bromo-4-oximino-1-methylcarbamoyl-1,2,3,4-tetrahydroquinoline] displayed a response vs control in vivo at 50 mg/kg in the data set with rats of 197%. In data set [1], the “Solubility in ethanol and dichloromethane” value was “soluble”; the “Solubility in water and hexane” value is “Sparingly soluble”. In addition, in data set [2], the ED30 turned out to be 95 mg/kg. In data set [3], this molecule came in with a 50% lethal dose (LD50) at 168 h greater than 5000 mg/kg.

In turn, `CC(C)C(=O)N1CCC(=NO)c2cc(Br)ccc21` [XVII, 6-Bromo-4-oximino-1-isobutyryl-1,2,3,4-tetrahydroquinoline] had a response vs control in vivo at 50 mg/kg with rats of 173%. In addition, in data set [1], the “Solubility in ethanol and dichloromethane” value is reported as “soluble”; the “Solubility in water and hexane” value is on record as “Sparingly soluble”. Besides, the ED30 in data set [2] was determined as 102 mg/kg. In data set [3], this molecule returned a 50% lethal dose (LD50) at 168 h greater than 5000 mg/kg.

Values taken from patent publication US4440770A, “Diuretic, hypotensive and antiedemic quinoline oximes” (Mochida Seiyaku Kabushiki Kaisha, priority 1980, dated 1984).
